Results on 22 molecules are retold here after PubChem BioAssay AID493086 (The Scripps Research Institute Molecular Screening Center, 2011).

What is called IC50 is the concentration needed to halve the response being measured.

The target in the assay is Induced myeloid leukemia cell differentiation protein Mcl-1 (Homo sapiens) (UniProt Q07820). In words: blockers of MCL1–BIM BH3 interaction – biochemical, fluorescence polarization, assay provider data, powder samples, late-stage follow-up (AID 493086). The following applies: GST-MCL1 / FITC-BIM-BH3 fluorescence polarization. (Fluorescence polarisation rises when a labelled molecule tumbles more slowly, as on binding a larger partner.)
Induced myeloid leukemia cell differentiation protein Mcl-1 (Homo sapiens), sequence (Q07820 whole entry, looked up): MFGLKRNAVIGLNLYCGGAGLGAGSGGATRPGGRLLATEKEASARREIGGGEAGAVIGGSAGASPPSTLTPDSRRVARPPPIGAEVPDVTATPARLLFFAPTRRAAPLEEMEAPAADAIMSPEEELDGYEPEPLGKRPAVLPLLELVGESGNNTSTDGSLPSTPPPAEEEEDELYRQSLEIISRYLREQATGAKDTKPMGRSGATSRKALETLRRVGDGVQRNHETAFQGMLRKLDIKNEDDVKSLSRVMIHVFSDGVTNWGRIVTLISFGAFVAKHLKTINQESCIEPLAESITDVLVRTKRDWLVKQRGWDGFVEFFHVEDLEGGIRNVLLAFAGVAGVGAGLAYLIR

Active and inactive are the calls of the source.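 The calls were made as follows: active = IC50 at or below 10 µM; inactive = IC50 above 10 µM.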

On to `O=C(Nc1ccccc1F)c1cc(-c2ccco2)nc2ccccc12`, for which the IC50 entry was “inactive”.
Turning to `COc1ccc(Cc2nnc(NC(=O)Cc3ccc4c(c3)OCO4)s2)cc1OC`, the IC50 was > 20 µM (inactive).
As for `CC(=O)c1cccc(NC(=O)c2cc(-c3ccco3)nc3ccccc23)c1`, the IC50 was > 20 µM (inactive).
Consider `COc1ccc(CC(=O)Nc2nnc(Cc3ccc(OC)c(OC)c3)s2)cc1`, for which the IC50 was > 20 µM (inactive).
To `COc1ccc(NC(=O)c2cc(-c3ccco3)nc3ccccc23)cc1S(=O)(=O)N1CCOCC1` belongs “inactive”; to `COc1cccc(NC(=O)c2cc(-c3ccco3)nc3ccccc23)c1`, > 20 µM (inactive).
With `COc1ccc(Cc2nnc(NC(=O)Cc3csc4ccccc34)s2)cc1OC`, the IC50 is > 20 µM (inactive).
With `COc1ccc(Cc2nnc(NC(=O)Cc3ccccn3)s2)cc1OC`, the IC50 was > 20 µM (inactive).
For `COc1ccc(NC(=O)c2cc(-c3ccco3)nc3ccccc23)cc1`, the IC50 was > 20 µM (inactive).
For the molecule `COc1ccccc1CC(=O)Nc1nnc(Cc2ccc(OC)c(OC)c2)s1`, the IC50 was > 20 µM (inactive).
For `COc1ccc(NC(=O)CN(C)C(=O)c2cc(-c3ccc(C)o3)nc3ccccc23)cc1`, the IC50 is > 20 µM (inactive).
Under `Cc1ccc(NC(=O)c2cc(-c3ccc(C)o3)nc3ccccc23)cc1` stands > 20 µM (inactive); under `Cc1ccc2nc(NC(=O)c3cc(-c4ccco4)nc4ccccc34)sc2c1`, > 20 µM (inactive); under `Cc1ccc(-c2cc(C(=O)N3CCN(c4ccc(F)cc4)CC3)c3ccccc3n2)o1`, > 20 µM (inactive).
As to `COc1cccc(CC(=O)Nc2nnc(Cc3ccc(OC)c(OC)c3)s2)c1`, the IC50 is > 20 µM (inactive).
As for `Cc1ccc(-c2cc(C(=O)N3CCOCC3)c3ccccc3n2)o1`, the IC50 was > 20 µM (inactive).
To `COc1cccc(NC(=O)CN(C)C(=O)c2cc(-c3ccco3)nc3ccccc23)c1` belongs > 20 µM (inactive).
For the molecule `COc1ccc(NC(=O)c2cc(-c3ccc(C)o3)nc3ccccc23)cc1`, the IC50 was > 20 µM (inactive).
With `Cc1ccc(-c2cc(C(=O)Nc3ccccc3C(N)=O)c3ccccc3n2)o1`, the IC50 is > 20 µM (inactive).
`Cc1ccc(-c2cc(C(=O)Nc3cccnc3)c3ccccc3n2)o1`: the IC50 result is “inactive”.
As to `Cc1ccc(S(=O)(=O)N(C)C)cc1NC(=O)c1cc(-c2ccco2)nc2ccccc12`, the IC50 was > 20 µM (inactive).
As to `CN(CCOc1ccccc1)C(=O)c1cc(-c2ccco2)nc2ccccc12`, the IC50 was > 20 µM (inactive).
